Measurements as given in US20140314780A1, “Compositions Using Antibodies Directed to GPNMB and Uses Thereof” (Celldex Therapeutics, Inc., priority 2008, published 2014).

Experiments:
[1] = tested on: UACC62 melanoma cells; assay: In vitro growth-inhibition/cytotoxicity assay, UACC62 cells; format: cell-based, human; details: UACC62 cells
[2] = tested on: SKMEL2 cells; details: SKMEL2 cells (FIG. 4C)
Procedure: Cells were seeded in tissue culture dishes at a subconfluent density and allowed to attach overnight. The following day, cells were treated with or without U0126 (1 μM) diluted in growth media and incubated for 48 hours. […] After incubation, photomicrographs were taken and adherent cells were trypsinized, mixed with trypan blue dye and counted on a haemocytometer. Only viable cells which excluded trypan blue were counted. For SKMEL2, cells were seeded in 96-well plates after U0126 treatment and assayed after 72 h using the CellTiter-Glo assay according to the manufacturer's instructions (Promega, Madison, Wis.).

SMILES: N#CC(=C(/N)Sc1ccccc1N)/C(C#N)=C(\N)Sc1ccccc1N [Mab U0126]
- sensitization to CR011-vcMMAE by pretreatment, CellTiter-Glo assay (ATP) [1]: confirmed
- sensitization to growth-inhibitory activity of CR011-vcMMAE by pretreatment [1]: sensitized
- sensitization to CR011-vcMMAE by pretreatment [2]: sensitized
